Several values for one entry are separate records, joined by “and”; a condition that tells them apart may be missing. Equal values may be shown once. Where a name gives a salt, the structure may show the parent alone. Read-outs that look alike come from different tables or passages of the source.
What was measured:
[1] = Example 4: multiple dose steady-state dose proportionality study, tramadol injection 50/100 mg IV and Ultram tablet 50/100 mg oral q6h; type: in vivo, human; conditions: for Cmax, tramadol, Mean ± SD / Cmin, tramadol, Mean ± SD / Tmax, tramadol, Mean ± SD: steady-state, healthy volunteers
Experimental: The study was an open-label, single-period, randomized, parallel treatment design. Subjects received study drug every 6 hours beginning on the morning of Day 1 and ending on the morning of Day 3. The first dose on Day 1 and the last dose on Day 3 were administered after a minimum 10 hour fast.

[2] = cited from earlier work; for CL/F (total clearance): humans n=10 male
[3] = tramadol single […] [100 mg] p.o., humans N=12 male; cited from earlier work
[4] = tested on: patients undergoing abdominal surgery; conditions: cited from earlier work
rats and dogs = conditions: repeat-dose toxicity; cited from earlier work
[5] = standard in vitro and in vivo studies; cited from earlier work
mice and rats = conditions: cited from earlier work
[6] = cited from earlier work
[7] = loading doses up to 150 mg IV, postoperative; cited from earlier work
[8] = tested on: experienced opioid abusers; conditions: cited from earlier work
[9] = after oral administration; cited from earlier work
[10] = Example 1: multiple-dose randomized 3-way crossover PK study of two IV tramadol regimens vs 100 mg oral q6h; conditions: for theoretical accumulation factor: 1/[1-exp(−ln 2*tau/T1/2)], T1/2 approximately […]
Experimental: A fitted curve was obtained because the second oral peak was not measured in the study. For the modeling portion of the analysis, a validated Phoenix® WinNonlin® program version 6.4 (Certara) was used for PK analysis, simulation, graphics, tables and statistical calculations. […] For purposes of nonlinear regression, the data were weighted as 1/observed. Predicted concentration-time data were calculated based on the individual fitted PK parameters.

[11] = Tramadol dosed as 50 mg IV every 6 hours
[12] = Tramadol dosed as 100 mg IV every 6 hours
[13] = Tramadol dosed as Oral (Ultram tablet) every 6 hours

Q: For `COc1cccc([C@]2(O)CCCC[C@H]2CN(C)C)c1` (racemic) [Tramadol, (±)cis-2-[(dimethylamino)methyl]-1-(3-methoxyphenyl) cyclohexanol hydrochloride], which “Cmax, tramadol, Mean ± SD” value [1, 11] is on record?
A: The value was 541 ± 126 ng/mL.

Q: And the “Cmin, tramadol, Mean ± SD” value [1, 11]?
A: The value was 203 ± 50 ng/mL.

Q: And the “Tmax, tramadol, Mean ± SD” value [1, 11]?
A: Its value is 0.375 ± 0.189 h.

Q: And the “Cmin, tramadol, Mean ± SD” value ([1]; Tramadol dosed as 50 mg Oral (Ultram tablet) every 6 hours)?
A: The value was 213 ± 93 ng/mL.

Q: What about the “Cmax, tramadol, Mean ± SD” value [1, 12] of the same compound?
A: The value was 1250 ± 236 ng/mL.

Q: And the “Cmin, tramadol, Mean ± SD” value [1, 12]?
A: Its value is 539 ± 172 ng/mL.

Q: What about the “Tmax, tramadol, Mean ± SD” value [1, 12] of the same compound?
A: The value was 0.406 ± 0.442 h.

Q: And the “Cmax, tramadol, Mean ± SD” value [1, 13]?
A: The value was 703 ± 210 ng/mL.

Q: What about the “Cmin, tramadol, Mean ± SD” value [1, 13] of the same compound?
A: Its value is 405 ± 151 ng/mL.

Q: And the AUC ([1]; human, plasma, iv, 50 mg)?
A: The AUC was 1970 ± 453 ng·h/mL.

Q: What about the AUC(0-inf) ([1]; human, plasma, iv, 50 mg) of the same compound?
A: The AUC(0-inf) was 4040 ± 1060 ng·h/mL.

Q: And the AUC(0-t) ([1]; human, plasma, iv, 50 mg)?
A: Its AUC(0-t) is 4010 ± 1050 ng·h/mL.

Q: What about the AUC ([1]; human, plasma, iv, 100 mg) of the same compound?
A: Its AUC is 4730 ± 1240 ng·h/mL.

Q: What about the AUC(0-inf) ([1]; human, plasma, iv, 100 mg) of the same compound?
A: The AUC(0-inf) was 11400 ± 4540 ng·h/mL.

Q: And the AUC(0-t) ([1]; human, plasma, iv, 100 mg)?
A: Its AUC(0-t) is 11200 ± 4270 ng·h/mL.

Q: And the AUC(0-inf) ([1]; human, plasma, po, 50 mg)?
A: Its AUC(0-inf) is 4450 ± 2110 ng·h/mL.

Q: And the AUC(0-t) ([1]; human, plasma, po, 50 mg)?
A: Its AUC(0-t) is 4360 ± 2030 ng·h/mL.

Q: And the Cmax ([1]; human, plasma, po, 50 mg)?
A: Its Cmax is about 368 ng/mL.

Q: What about the AUC(0-t) ([1]; human, plasma, po, 100 mg) of the same compound?
A: The AUC(0-t) was 8660 ± 4260 ng·h/mL.

Q: What about the “absolute bioavailability of the oral dose” value ([2]; 100 mg PO vs IV, based on AUC values, hydrochloride) of the same compound?
A: The value was 68±13% and 68%.

Q: And the first pass metabolism ([2]; 100 mg PO, estimated)?
A: The first pass metabolism was about 20%.

Q: What about the “estimated absorption of the oral dose” value ([2]; 100 mg PO) of the same compound?
A: Its value is 86-88%.

Q: And the “CL/F (total clearance)” value ([2]; 100 mg i.v., hydrochloride)?
A: The value was 467 ± 124 mL/min.

Q: And the “CL/F (total clearance)” value ([2]; 100 mg i.v., listed as tramadol, hydrochloride)?
A: Its value is 710 ± 174 mL/min.

Q: What about the “time to peak serum concentration (tmax)” value ([2]; 100 mg oral dosing) of the same compound?
A: The value was “approximately 2 hours”.

Q: What about the “CL/F (total clearance)” value ([2]; 100 mg p.o., hydrochloride) of the same compound?
A: Its value is 710 ± 174 mL/min.

Q: What about the “CL/F (total clearance)” value ([2]; 100 mg p.o., listed as tramadol, hydrochloride) of the same compound?
A: Its value is 467 ± 124 mL/min.

Q: What about the AUC [3] of the same compound?
A: The AUC was 2177 ± 722 ng·h/mL.

Q: And the Cmax [3]?
A: The Cmax was 274 ± 75 ng/mL.

Q: What about the Tmax [3] of the same compound?
A: The Tmax was 1.6 ± 0.5 h.

Q: What about the t1/2 [3] of the same compound?
A: The t1/2 was 5.9 ± 0.7 h.

Q: And the “patients reporting adverse events” value ([4]; both groups (infusion and bolus))?
A: The value was 25%.

Q: And the “effects on blood pressure or heart rate” value ([4]; infusion and bolus groups)?
A: Its value is “no significant effects”.

Q: And the “doses with behavioral/clinical signs and convulsions” value (rats and dogs)?
A: The value was over 25 mg/kg/day.

Q: What about the genotoxic potential [5] of the same compound?
A: The genotoxic potential was “no evidence of genotoxic potential”.

Q: And the carcinogenic potential (mice and rats)?
A: The carcinogenic potential was “no evidence of carcinogenic potential”.

Q: And the absolute bioavailability ([6]; oral, continuous dosing (Liao et al., 1992))?
A: The absolute bioavailability was 90-100%.

Q: And the “increase of elimination half-life” value ([6]; subjects with renal or hepatic impairment)?
A: Its value is “approximately 2 fold”.

Q: And the serious adverse effects [7]?
A: The serious adverse effects was “not associated with any serious adverse effects”.

Q: And the seizure ([8]; 200 mg IV administered over 5 minutes)?
A: Its seizure is “No seizures were observed”.

Q: And the seizure ([8]; 300 mg IV delivered over 2.5 minutes)?
A: The seizure was “seizure was observed”.

Q: What about the seizure ([8]; 700 mg IV administered over 1 minute) of the same compound?
A: Its seizure is “seizure was observed”.

Q: What about the “ratings of “liking”” value ([8]; tramadol 100 and 200 mg IV, morphine 10 and 20 mg IV, over 5 minutes, 10 experienced opioid abusers) of the same compound?
A: The value was “neither dose of tramadol increased ratings”.

Q: And the “ratings of “feel drug effect” compared to placebo” value ([8]; tramadol 100 and 200 mg IV, morphine 10 and 20 mg IV, over 5 minutes)?
A: The value was “significantly increased”.

Q: And the “ratings on the ARCI-MBG scale” value ([8]; tramadol 100 and 200 mg IV, morphine 20 mg IV)?
A: Its value is “neither dose of tramadol increased ratings”.

Q: And the “fertility or teratogenic effects” value [9]?
A: The value was “no safety concerns”.

Q: And the “predicted exposure over 12 h at steady state” value (shortened to “predicted exposure over 12 h”) ([10]; 50 mg IV q4h, 3 x AUCtau n)?
A: The value was 6684 ng·h/mL.

Q: What about the “RAC(trough)” value ([10]; 50 mg IV regimen (h 0, 2, 4, then q4h to h 44), mean) of the same compound?
A: Its value is 2.1937.

Q: And the Css ([10]; 50 mg IV regimen (h 0, 2, 4, then q4h to h 44), plasma, mean)?
A: The Css was 557 ng/mL.

Q: What about the “predicted exposure over 12 h” value ([10]; 75 mg IV q6h, 2 x AUCtau n) of the same compound?
A: Its value is 6072 ng·h/mL.

Q: What about the “RAC(trough)” value ([10]; 75 mg IV regimen (h 0, 3, 6, then q6h to h 42), mean) of the same compound?
A: Its value is 1.5026.

Q: And the Css ([10]; 75 mg IV regimen (h 0, 3, 6, then q6h to h 42), plasma, mean)?
A: The Css was 506 ng/mL.

Q: And the AUC24-48 ([10]; 75 mg IV regimen (h 0, 3, 6, then q6h to h 42), plasma, mean, hydrochloride)?
A: The AUC24-48 was 9402 ng·h/mL.

Q: And the “predicted exposure over 12 h” value ([10]; 100 mg PO q6h, 2 x AUCtau n)?
A: The value was 6950 ng·h/mL.

Q: And the “RAC(trough)” value ([10]; 100 mg oral q6h to h 42, mean)?
A: The value was 2.5580.

Q: And the Css ([10]; 100 mg oral q6h to h 42, plasma, mean)?
A: The Css was 579 ng/mL.

Q: What about the theoretical accumulation factor ([10]; 4-h dosing interval) of the same compound?
A: Its theoretical accumulation factor is 2.42.

Q: What about the theoretical accumulation factor ([10]; 6-h dosing interval) of the same compound?
A: Its theoretical accumulation factor is 1.82.

Q: What about the AUC(0-t) ([10]; human, plasma, iv, 50 mg, AUC0-24, 50 mg IV regimen (h 0, 2, 4, then q4h to h 44), plasma, mean) of the same compound?
A: Its AUC(0-t) is 9520 ng·h/mL.

Q: And the AUC(0-t) ([10]; human, plasma, iv, 50 mg, AUC0-48, 50 mg IV regimen (h 0, 2, 4, then q4h to h 44), plasma, mean)?
A: The AUC(0-t) was 20500 ng·h/mL.

Q: And the AUC ([10]; human, plasma, iv, 50 mg, AUC24-48, 50 mg IV regimen (h 0, 2, 4, then q4h to h 44), plasma, mean)?
A: Its AUC is 11000 ng·h/mL.

Q: And the AUC ([10]; human, plasma, iv, 50 mg, AUCtau 1, 50 mg IV regimen (h 0, 2, 4, then q4h to h 44), first dosing interval, mean)?
A: Its AUC is 624 ng·h/mL.

Q: And the AUC ([10]; human, plasma, iv, 50 mg, AUCtau n, 50 mg IV regimen (h 0, 2, 4, then q4h to h 44), last dosing interval, mean)?
A: Its AUC is 2230 ng·h/mL.

Q: And the concentration at 2 h ([10]; human, plasma, iv, 50 mg, C2, 50 mg IV regimen (h 0, 2, 4, then q4h to h 44), plasma, mean)?
A: The concentration at 2 h was 203 ng/mL.

Q: And the concentration at 48 h ([10]; human, plasma, iv, 50 mg, C48 (T48), 50 mg IV regimen (h 0, 2, 4, then q4h to h 44), plasma, mean)?
A: Its concentration at 48 h is 448 ng/mL.

Q: What about the concentration at 1 h ([10]; human, plasma, iv, 50 mg, C1 h, 50 mg IV regimen (h 0, 2, 4, then q4h to h 44), plasma, mean) of the same compound?
A: The concentration at 1 h was 243 ng/mL.

— patent US10537521B2 (priority 2016, dated 2020)
